19 compounds from PubChem BioAssay AID602206 (Sanford-Burnham Center for Chemical Genomics, 2012) can be followed below.

What is called IC50 is the point on the concentration scale where inhibition reaches its midpoint.

The target in the test is Bcl-2-related protein A1 (Mus musculus) (UniProt Q07440). Nature of the test: off-target activity on mouse Bfl-1 – biochemical, set 3, counter-screen for UBC13 polyubiquitination inhibitor project, SAR follow-up (AID 602206). Conditions: Bfl-1 / peptide binding counterscreen, TR-FRET. (In general: A counterscreen serves to expose hits that act by an unwanted route or on another target.)
Bcl-2-related protein A1 (Mus musculus), sequence (Q07440 whole entry, looked up): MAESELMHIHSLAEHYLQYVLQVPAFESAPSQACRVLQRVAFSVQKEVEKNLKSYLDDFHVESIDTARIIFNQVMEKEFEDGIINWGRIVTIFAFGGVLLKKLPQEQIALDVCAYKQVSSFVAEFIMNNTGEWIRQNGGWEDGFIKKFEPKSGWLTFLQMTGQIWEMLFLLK

Calls of active or inactive are those of the source. No rule for the calls is given here.

In the case of `O=C(Nc1cccc(Cl)c1)C1CCN(c2ncnc3c2nc2n3CCCCC2)CC1`, the IC50 is > 100 µM (inactive).

As to `Cc1ccc(NC(=O)C2CCN(c3ncnc4c3nc3n4CCCCC3)CC2)cc1C`, the IC50 was > 100 µM (inactive).

As to `O=C(CCCCCN1C(=O)c2ccccc2C1=O)NCCc1ccccc1`, the IC50 is > 100 µM (inactive).

As for `COc1cc(Cl)c(C)cc1NC(=O)C1CCN(c2ncnc3c2nc2n3CCCCC2)CC1`, the IC50 was > 100 µM (inactive).

Regarding `Cc1ccc(NC(=O)C2CCN(c3ncnc4c3nc3n4CCCCC3)CC2)c(Cl)c1`, the IC50 was > 100 µM (inactive).

Regarding `COc1ccc(Cl)cc1NC(=O)C1CCN(c2ncnc3c2nc2n3CCCCC2)CC1`, the IC50 is > 100 µM (inactive).

Regarding `O=C(Nc1ccc(CN2CCCCC2)cc1)C1CCN(c2ncnc3c2nc2n3CCCCC2)CC1`, the IC50 was > 100 µM (inactive).

For `c1ccc(CN2CCN(c3ncnc4c3nc3n4CCCC3)CC2)cc1`, the IC50 is > 100 µM (inactive).

Consider `Cc1cc(Cl)ccc1NC(=O)C1CCN(c2ncnc3c2nc2n3CCCCC2)CC1`, for which the IC50 was > 100 µM (inactive).

Take `Cc1ccc(Cl)cc1N1CCN(c2ncnc3c2nc2n3CCCC2)CC1`: the IC50 was > 100 µM (inactive).

As for `O=C(Nc1cc(F)ccc1F)C1CCN(c2ncnc3c2nc2n3CCCCC2)CC1`, the IC50 is > 100 µM (inactive).

Regarding `Fc1ccccc1N1CCN(c2ncnc3c2nc2n3CCCC2)CC1`, the IC50 is > 100 µM (inactive).

Take `CCOc1ccc(CCNC(=O)CCCCCN2C(=O)c3ccccc3C2=O)cc1OCC`: the IC50 is > 100 µM (inactive).

As for `c1nc(N2CCC(N3CCCCC3)CC2)c2nc3n(c2n1)CCCC3`, the IC50 is > 100 µM (inactive).

Regarding `Cc1ccc(NC(=O)C2CCN(c3ncnc4c3nc3n4CCCCC3)CC2)cc1F`, the IC50 is > 100 µM (inactive).

Turning to `COc1cc(OC)c(NC(=O)C2CCN(c3ncnc4c3nc3n4CCCCC3)CC2)cc1Cl`, the IC50 is > 100 µM (inactive).

On to `CC1CN(S(=O)(=O)c2ccc(NC(=O)CCCCCN3C(=O)c4ccccc4C3=O)cc2)CC(C)O1` (centres undefined), for which the IC50 was > 100 µM (inactive).

Consider `COc1ccc(NC(=O)C2CCN(c3ncnc4c3nc3n4CCCCC3)CC2)cc1Cl`, for which the IC50 is > 100 µM (inactive).

As for `Cc1c(Cl)cccc1NC(=O)C1CCN(c2ncnc3c2nc2n3CCCCC2)CC1`, the IC50 was > 100 µM (inactive).
